Patent US9169247B2, “Tetrahydro-beta-carboline derivatives, synthesis and use thereof” (Southern Research Institute, priority 2009, dated 2015)
pIC50: −log10 of the molar value. Read-outs that look alike come from different tables or passages of the source.

Tests used:
786-0 = test: Growth assay (Cell Titer Glo); format: cell-based; settings: Homo sapiens; 786-0, renal
Method: (§1) All human tumor cell lines were obtained from ATCC and grown under standard cell culture conditions at 37° C. in a humidified atmosphere with 5% CO2. Cells were grown in RPMI 1640 supplemented with 5% fetal bovine serum 2 mM glutamine, 100 units/ml penicillin, 100 units/ml streptomycin, and 0.25 μg/ml amphotericin. Cells were harvested at 70 to 90% confluence with trypsin/EDTA and used immediately Cell count and viability was determined by Trypan blue staining followed by hemocytometry. Only cultures displaying >95% cell viability were used for experiments. HMEC were grown according to the specifications from the supplier (Lonzo).
(§2) Tissue culture microtiter 96-well plates were seeded with cells at a density of 5,000 cells/well. The plates were incubated for 18-24 hours prior to any treatment. All test compounds were solubilized in 100% DMSO and diluted with media to obtain a final DMSO concentration of 0.1%. Cell viability was measured 72 hours after treatment by the Cell Titer Glo Assay (Promega), which is a luminescent assay that is an indicator of live cells as a function of metabolic activity and ATP content. The assay was performed according to manufacturer's specifications. Luminescence was measured by a Perkin Elmer Victor® multi-label plate reader.^6
(§3) Dose response curves were analyzed using Prism™ 4 software (GraphPad) to calculate IC50 values using a four parameter logistic equation.

ACHN = test: Growth assay (Cell Titer Glo); format: cell-based; settings: Homo sapiens, renal
Method: as §1, §2, §3

DU-145 = test: Growth assay (Cell Titer Glo); format: cell-based; settings: Homo sapiens; DU-145, prostate
Method: as §1, §2, §3

EKVX = test: Growth assay (Cell Titer Glo); format: cell-based; settings: Homo sapiens, lung
Method: as §1, §2, §3

HCT-116 = test: Growth assay (Cell Titer Glo); format: cell-based; settings: Homo sapiens; HCT-116, colon
Method: as §1, §2, §3

HCT-15 = test: Growth assay (Cell Titer Glo); format: cell-based; settings: Homo sapiens; HCT-15, colon
Method: as §1, §2, §3

IGROVI = test: Growth assay (Cell Titer Glo); format: cell-based; settings: Homo sapiens; IGROVI / IGROV-1, ovarian
Method: as §1, §2, §3

KM12 = test: Growth assay (Cell Titer Glo); format: cell-based; settings: Homo sapiens; KM12, colon
Method: as §1, §2, §3

LOX IMVI = test: Growth assay (Cell Titer Glo); format: cell-based; settings: Homo sapiens; LOX IMVI / LOX IMV1, melanoma
Method: as §1, §2, §3

M14 = test: Growth assay (Cell Titer Glo); format: cell-based; settings: Homo sapiens; M14, melanoma
Method: as §1, §2, §3

MALME-3M = test: Growth assay (Cell Titer Glo); format: cell-based; settings: Homo sapiens, melanoma
Method: as §1, §2, §3

MCF-7 = test: Growth assay (Cell Titer Glo); format: cell-based; settings: Homo sapiens, MCF7; MCF-7, breast
Method: as §1, §2, §3

NCI-H23 = test: Growth assay (Cell Titer Glo); format: cell-based; settings: Homo sapiens; NCI-H23, lung
Method: as §1, §2, §3

NCI-H322M = test: Growth assay (Cell Titer Glo); format: cell-based; settings: Homo sapiens, lung
Method: as §1, §2, §3

OVCAR-4 = test: Growth assay (Cell Titer Glo); format: cell-based; settings: Homo sapiens; OVCAR-4, ovarian
Method: as §1, §2, §3

OVCAR-5 = test: Growth assay (Cell Titer Glo); format: cell-based; settings: Homo sapiens; OVCAR-5, ovarian
Method: as §1, §2, §3

OVCAR-8 = test: Growth assay (Cell Titer Glo); format: cell-based; settings: Homo sapiens; OVCAR-8, ovarian
Method: as §1, §2, §3

PC-3 = test: Growth assay (Cell Titer Glo); format: cell-based; settings: Homo sapiens; PC-3, prostate
Method: as §1, §2, §3

RXF-393 = test: Growth assay (Cell Titer Glo); format: cell-based; settings: Homo sapiens; RXF-393, renal
Method: as §1, §2, §3

SF-268 = test: Growth assay (Cell Titer Glo); format: cell-based; settings: Homo sapiens; SF-268, CNS
Method: as §1, §2, §3

SF-539 = test: Growth assay (Cell Titer Glo); format: cell-based; settings: Homo sapiens; SF-539, CNS
Method: as §1, §2, §3

SKOV-3 = test: Growth assay (Cell Titer Glo); format: cell-based; settings: Homo sapiens; SKOV-3 / SK-OV-3, ovarian
Method: as §1, §2, §3

SNB-75 = test: Growth assay (Cell Titer Glo); format: cell-based; settings: Homo sapiens; SNB-75, CNS
Method: as §1, §2, §3

SR = test: Growth assay (Cell Titer Glo); format: cell-based; settings: Homo sapiens, hematopoietic
Method: as §1, §2, §3

SW-620 = test: Growth assay (Cell Titer Glo); format: cell-based; settings: Homo sapiens; SW-620, colon
Method: as §1, §2, §3

T-47D = test: Growth assay (Cell Titer Glo); format: cell-based; settings: Homo sapiens, T47D, breast
Method: as §1, §2, §3

TK-10 = test: Growth assay (Cell Titer Glo); format: cell-based; settings: Homo sapiens; TK-10, renal
Method: as §1, §2, §3

U251 = test: Growth assay (Cell Titer Glo); format: cell-based; settings: Homo sapiens, U-251; U251, CNS
Method: as §1, §2, §3

UACC-257 = test: Growth assay (Cell Titer Glo); format: cell-based; settings: Homo sapiens; UACC-257, melanoma
Method: as §1, §2, §3

UACC-62 = test: Growth assay (Cell Titer Glo); format: cell-based; settings: Homo sapiens; UACC-62, melanoma
Method: as §1, §2, §3

UO-31 = test: Growth assay (Cell Titer Glo); format: cell-based; settings: Homo sapiens; UO-31, renal
Method: as §1, §2, §3

[1] = tested on: human MDA-MB-231 breast tumor cells; test: Growth assay (Cell Titer Glo); format: cell-based; settings: Homo sapiens
Method: as §1, §2, §3

HT-29 = test: Growth assay (Cell Titer Glo); format: cell-based, human; settings: HT-29 colon
Method: Compounds 2a-h were tested for tumor cell growth inhibitory activity using the human breast MDA-MB-231 and ZR75-1 tumor cell lines and the colon CACO-2, SW-1116, and HT-29 tumor cell lines.
as §1, §2, §3

[2] = tested on: human Caki-1 renal tumor cell line; test: Growth assay (Cell Titer Glo); format: cell-based
Method: FIGS. 3A-B illustrate the anticancer activity of compound 2j. […] The cells with treated for 72 hours prior to measuring cell viability using the Cell Titer Glo assay (Promega Corp.). […] Tumor bearing mice were treated at a dose of 10 mg/kg one time per day for 22 days.
as §1, with “HMEC were grown according to the specifications from the supplier (Lonzo).” left out
Tissue culture microtiter 96-well plates were seeded with cells at a density of 5,000 cells/well. […] Cell viability was measured 72 hours after treatment by the Cell Titer Glo Assay (Promega), which is a luminescent assay that is an indicator of live cells as a function of metabolic activity and ATP content. […] Luminescence was measured by a Perkin Elmer Victor® multi-label plate reader.^6
as §3

`COC(=O)[C@H]1Cc2c([nH]c3ccccc23)[C@H](c2cc(OC)ccc2OC)N1C(=O)CCl` [Compound 2f, Methyl (1S,3R)-1-(2,5-dimethoxyphenyl)-2-(2-chloroacetyl)-2,3,4,9-tetrahydro-1H-β-carboline-3-carboxylate] gave a pIC50 (786-0) of 7.49, a pIC50 (ACHN) of 8.89 and a pIC50 (DU-145) of 6.63. For the same compound, the pIC50 (EKVX) was 7.85, the pIC50 (HCT-116) was under 5.00 and the pIC50 (HCT-15) was under 5.00. The pIC50 (IGROVI) was 8.00, the pIC50 (KM12) was 5.86 and the pIC50 (LOX IMVI) was 8.40. For the same compound, the pIC50 (M14) was 6.31, the pIC50 (MALME-3M) was 6.88 and the pIC50 (MCF-7) was 5.43. The pIC50 (NCI-H23) was 7.89, the pIC50 (NCI-H322M) was 5.61 and the pIC50 (OVCAR-4) was 7.82. The pIC50 (OVCAR-5) was 6.00, the pIC50 (OVCAR-8) was 7.17 and the pIC50 (PC-3) was 6.72. For the same compound, the pIC50 (RXF-393) was 8.52, the pIC50 (SF-268) was 6.16 and the pIC50 (SF-539) was 7.47. The pIC50 (SKOV-3) was 7.22, the pIC50 (SNB-75) was 7.20 and the pIC50 (SR) was over 8.15. The pIC50 (SW-620) was 5.48, the pIC50 (T-47D) was 6.01 and the pIC50 (TK-10) was 7.11. For the same compound, the pIC50 (U251) was 6.59, the pIC50 (UACC-257) was 5.27 and the pIC50 (UACC-62) was 6.92. It also gave a pIC50 (UO-31) of over 8.05, an IC50 ([1]; MDA-MB-231, 72 h, MDA-MB-231 breast, 72 h, Tables 3-5, read-out: IC50 value, μM, growth) of 0.006 µM and an IC50 (HT-29; 72 h) of 0.452 µM. It also gave an IC50 (HT-29; Homo sapiens, HT-29, 72 h) of 0.45 µM, a pIC50 ([2]; CAKI-1, CAKI-1, renal, read-out: IC50) of over 8.22 and a melting point of 232 °C.

With `COC(=O)[C@H]1Cc2c([nH]c3ccccc23)[C@H](c2ccc(Cl)cc2Cl)N1C(=O)CCl` [Compound 2j, (1S,3R) Methyl 1-(2,4-dichlorophenyl)-2-(2-chloroacetyl)-2,3,4,9-tetrahydro-1H-β-carboline-3-carboxylate] the pIC50 (786-0) was 7.70, the pIC50 (ACHN) was 8.00 and the pIC50 (DU-145) was under 5.52. The pIC50 (EKVX) was 7.70, the pIC50 (HCT-116) was under 5.52 and the pIC50 (HCT-15) was under 5.52. The pIC50 (IGROVI) was 7.70, the pIC50 (KM12) was 6.20 and the pIC50 (LOX IMVI) was over 9.00. It also gave a pIC50 (M14) of 5.65, a pIC50 (MALME-3M) of under 5.52 and a pIC50 (MCF-7) of under 5.52. It also gave a pIC50 (NCI-H23) of under 5.52, a pIC50 (NCI-H322M) of under 5.52 and a pIC50 (OVCAR-4) of 7.30. The pIC50 (OVCAR-5) was 6.31, the pIC50 (OVCAR-8) was 7.30 and the pIC50 (PC-3) was 6.47. The pIC50 (RXF-393) was 7.82, the pIC50 (SF-268) was 7.00 and the pIC50 (SF-539) was 6.80. The pIC50 (SKOV-3) was 6.49, the pIC50 (SNB-75) was 7.00 and the pIC50 (SR) was 8.10. It also gave a pIC50 (SW-620) of 5.56, a pIC50 (T-47D) of 6.92 and a pIC50 (TK-10) of 6.70. It also gave a pIC50 (U251) of 5.73, a pIC50 (UACC-257) of under 5.52 and a pIC50 (UACC-62) of 6.54. It also gave a pIC50 (UO-31) of 8.30, an inhibition at 10 µM ([1]; MDA-MB-231, MDA-MB-231, 10 μM, mean +/− spread) of 98% and an IC50 ([1]; MDA-MB-231, MDA-MB-231, Tables 1 and 2, read-out: Growth Inhibition IC50, μM (95% CI)) of 0.07 µM. For the same compound, the IC50 (HT-29; Homo sapiens, HT-29, 72 h) was 0.65 µM, the pIC50 ([2]; CAKI-1, 72 h, FIG. 3A legend, read-out: IC50 value, tumor cell growth) was 8.64 and the melting point was 106 to 109 °C.
